Results: patent US11034681B2, “Crystal form of indole derivative and preparation method and use thereof” (CHIA TAI TIANQING PHARMACEUTICAL GROUP CO., LTD., priority 2018, dated 2021)

How the values were obtained:
CRTH2 receptor [1] = molecular target: T1, CRTH2 receptor (Homo sapiens, UniProt Q9Y5Y4); conditions: background statement; cited from earlier work
T1 sequence (Q9Y5Y4 1-395): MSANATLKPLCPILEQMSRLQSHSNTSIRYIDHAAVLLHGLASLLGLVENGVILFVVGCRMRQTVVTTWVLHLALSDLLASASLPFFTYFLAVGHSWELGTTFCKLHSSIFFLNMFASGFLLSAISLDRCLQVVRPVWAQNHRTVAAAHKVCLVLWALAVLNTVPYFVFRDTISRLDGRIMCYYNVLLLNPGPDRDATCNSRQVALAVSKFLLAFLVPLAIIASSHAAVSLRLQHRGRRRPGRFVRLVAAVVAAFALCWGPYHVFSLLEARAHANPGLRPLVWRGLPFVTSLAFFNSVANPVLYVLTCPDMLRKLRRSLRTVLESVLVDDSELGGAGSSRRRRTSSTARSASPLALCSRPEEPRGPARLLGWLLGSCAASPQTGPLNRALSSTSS

CRTH2 receptor [2] = molecular target: T1, CRTH2 receptor; experiment: PathHunter CHO-K1 CRTH2 β-arrestin antagonist assay; assay type: cell-based; conditions: PathHunter CHO-K1 CRTH2 β-arrestin cells, PGD2 agonist at EC80
Experimental: PathHunter® CHO-K1 CRTH2 β-arrestin cells (DiscoverX, catalogue number 93-0291C2) grew under standard conditions, and were inoculated into a white-wall 384-well microplate at a density of 5,000 cells/well. 20 μL of Cell Plating Reagent 1 was used in each well. Before the test, the cells were incubated overnight at 37° C./5% CO2. A test compound was serially diluted in DMSO with a dilution factor of 3-fold to give 8 concentrations of the test compound. Shortly before the test, the serially diluted test compound was further diluted with the test buffer to 5 times of the test concentration. 5 μL of the further diluted test compound was added to the cells, and the cells were incubated for 30 min at 37° C. The concentration of the solvent was 1%. 5 μL of 6×EC80 agonist (PGD2) buffer was added to the cells, and the cells were incubated for 90 min at 37° C. Measured signals were generated by one-time addition of 15 μL (50% v/v) of PathHunter detection mixture reagent and subsequent one-hour incubation. The microplate was read through the chemiluminescent signals of PerkinElmer Envision™ reader. Biological activity of the test compound was analyzed by CBIS data analysis suite (ChemInnovation, CA), and was denoted as IC50 value.

[3] = Stability test of crystal form A (impurity content); assay type: physicochemical
Excerpt: (§1) Samples placed under high temperature and high humidity conditions were sealed with aluminum foil, and small holes were made in the foil to ensure that the samples can fully contact with ambient air. Samples placed under strong light conditions were sealed with screw caps.

[4] = Plasma pharmacokinetic assay in mice; assay type: in vivo; conditions: mouse, female C57 BL/6 mice
Experimental: Twelve female C57 BL/6 mice were used in plasma pharmacokinetic assay, randomly divided into two groups, with 6 animals in each group. Animals in the first group were administered intravenously 1 mg/kg of the test drug, and animals in the second group were administered intragastrically 5 mg/kg of the test drug. A formula comprising HPbCD and cosolvent (Solutol®) was used as formulation vehicle, and the obtained intravenous or intragastric formulations were all clear solutions. For animals in the intravenous group and the intragastric group, blood was collected from the saphenous vein at 0.0833, 0.25, 0.5, 1, 2, 4, 8, and 24 hours after administration, with 3 samples at each time point. Plasma samples collected from the intragastric administration group were frozen at −80° C. and thawed before LC-MS/MS sample analysis. The thawed plasma samples were subjected to protein precipitation by adding acetonitrile containing an internal standard in a certain ratio, and centrifuged to obtain a supernatant for LC-MS/MS injection. AP14000 or 5500 was used as the analytical instrument, ACQUITY UPLC BEH C18 (2.1×50 mm, 1.7 μm) was used as the chromatographic column, and the ionization of the test compound was performed by an ESI positive or negative ion source. There were 8 concentrations of the standard sample in each analysis batch, the ratio of the peak area of the test compound to the peak area of the internal standard (IS) was noted as Y, the concentration of the test compound in the plasma sample was noted as X, 1/x^2 was taken as the weighting coefficient to carry on the linear regression, and the regression equation of response and concentration was obtained. There were also corresponding quality control samples in each analysis batch. Phoenix 6.3 WinNonlin® was used for data processing to give corresponding PK parameters.

[5] = Solid stability test of crystal form A (crystal form); assay type: physicochemical
Excerpt: as §1

[6] = test system: mice model of chronic/acute asthma induced by ovalbumin (OVA) and aluminum hydroxide (Al(OH)3); experiment: Mice model of chronic/acute asthma induced by OVA and Al(OH)3; assay type: in vivo

O=C(O)CCn1c2c(c3ccccc31)C[C@H](NS(=O)(=O)c1ccc(F)cc1)CC2 [Ramatroban]
CRTH2 receptor antagonism (CRTH2 receptor [1]): weak CRTH2 receptor antagonist

Cc1c(Cc2ccc3c(c2)C(F)(F)CCS3(=O)=O)c2cc(F)ccc2n1CC(=O)O [Compound 1]
IC50 (CRTH2 receptor [2]): < 100 nM

Cc1c(Cc2ccc3c(c2)C(F)(F)CCS3(=O)=O)c2cc(F)ccc2n1CC(=O)O [Crystal Form A of Compound 1]
Impurity Content ([3]; 0 Day (Table 5)): 0.07%
Impurity Content ([3]; 25° C/60% RH, 3 months): 0.09%
Impurity Content ([3]; 25° C/60% RH, 6 months): 0.13%
Impurity Content ([3]; 30° C/65% RH, 3 months): 0.09%
Impurity Content ([3]; 30° C/65% RH, 6 months): 0.15%
Impurity Content ([3]; 40° C/75% RH, 0 Day (Table 6)): 0.07%
Impurity Content ([3]; 40° C/75% RH, 1 month): 0.17%
Impurity Content ([3]; 40° C/75% RH, 2 months): 0.13%
clearance ([4]; intravenous 1 mg/kg, read-out: Clearance Rate of Intravenous Administration (Cl, mL/min/kg)): 4.55 mL/min/kg
half-life ([4]; po, intragastric 5 mg/kg, read-out: Half-life of Intragastric Administration (T1/2, hr) (converted)): 3.19 h
Cmax ([4]; po, intragastric 5 mg/kg, read-out: Maximum Blood Concentration of Intragastric Administration (Cmax)): 6.77 µM
AUC ([4]; po, intragastric 5 mg/kg, read-out: Plasma Exposure of Intragastric Administration (AUC, nM*hr)): 26000 nM·h
Crystal Form ([5]; 40° C, Reletive Humidity 75%, Exposure, day 10): Crystal Form A
Crystal Form ([5]; 40° C, Reletive Humidity 75%, Exposure, day 30): Crystal Form A
Crystal Form ([5]; 40° C, Reletive Humidity 75%, Exposure, day 60): Crystal Form A
Crystal Form ([5]; 40° C, Reletive Humidity 75%, Exposure, day 90): Crystal Form A
Crystal Form ([5]; 60° C, Reletive Humidity 75%, Exposure, day 10): Crystal Form A
Crystal Form ([5]; 60° C, Reletive Humidity 75%, Exposure, day 30): Crystal Form A
Crystal Form ([5]; 60° C, Reletive Humidity 75%, Exposure, day 60): Crystal Form A
Crystal Form ([5]; 60° C, Reletive Humidity 75%, Exposure, day 90): Crystal Form A
Crystal Form ([5]; High Humidity (Room temperature/Reletive Humidity 92.5%, Exposure), day 5): Crystal Form A
Crystal Form ([5]; High Humidity (Room temperature/Reletive Humidity 92.5%, Exposure), day 10): Crystal Form A
Crystal Form ([5]; High Temperature (60° C., Exposure), day 5): Crystal Form A
Crystal Form ([5]; High Temperature (60° C., Exposure), day 10): Crystal Form A
Crystal Form ([5]; Strong Light (5000 lx, Sealed), day 5): Crystal Form A
Crystal Form ([5]; Strong Light (5000 lx, Sealed), day 10): Crystal Form A
Crystal Form ([5]; day 0): Crystal Form A
number of eosinophils [6]: significantly reduce the number of eosinophils
